Measurements as given in patent US20150094345A1, “PHARMACEUTICAL FORMULATION HAVING IMPROVED STABILITY” (priority 2012, published 2015).

Assay: 6-month stability study of the compositions (impurity concentrations)
Type: physicochemical

concentration of the main decomposition product of amlodipine besylate (European Pharmacopeia: Impurity D) (any storage condition, 6-month stability testing period, composition containing ramipril and amlodipine): ≤ 0.05% | stability of amlodipine besylate in the combination dosage form (until the end of the six-month stability testing period): remains stable
Structure (SMILES): CCOC(=O)C1=C(COCCN)NC(C)=C(C(=O)OC)C1c1ccccc1Cl (centres unmarked) [amlodipine besylate]
